pEC50, pIC50: −log10 of the molar value.
Each compound was assayed against T1, Human immunodeficiency virus type 1 reverse transcriptase (Human immunodeficiency virus 1, UniProt Q72547) (assay: Inhibition of HIV-1 reverse transcriptase at 25 degree Centigrade).
Work on `CCc1ccnc2c1N(C)C(=O)c1cccnc1N2CC` yielded a pIC50 of 6.96.

What follows are compounds tested against T1, Human immunodeficiency virus type 1 reverse transcriptase (assay: Inhibition of HIV-1 reverse transcriptase at 37 degree Centigrade).
For `Cc1c(Oc2ccccc2)n(COCCO)c(=O)[nH]c1=O`, the pEC50 was 4.07.
With `Cc1c(Cc2ccccc2)n(COCCO)c(=O)[nH]c1=O` the pEC50 was 4.64.
`Cc1c(Sc2ccccc2)[nH]c(=O)[nH]c1=O` gave a pEC50 of under 3.60.
Compound `CCOCn1c(Cc2ccccc2)c(C(C)C)c(=O)[nH]c1=O` [EMIVIRINE] has a pEC50 of 8.40.
`Cc1c(Sc2ccccc2)n(C)c(=O)[nH]c1=O` was tested, and the pEC50 was under 3.82.
For `Cc1c(Sc2ccccc2)n(COCCO)c(=O)[nH]c1=O` [HEPT], the pEC50 was 5.15.
